# According to patent US11787819B2, “Crystalline salt of a multi-tyrosine kinase inhibitor, method of preparation, and use thereof” (Mirati Therapeutics, Inc., priority 2021, dated 2023):
# Tests used:
# [1] = Long term stability studies (related impurities by HPLC); type: physicochemical
# Description: Long term stability studies for Compound 1 Malate Form A were conducted at 2-8° C. and 25° C./60% RH. For each test interval, samples are packaged into double polyethylene bags, individually zip tied and stored in 30 mL white screw cap HDPE bottles.
# [2] = Pharmacokinetics in beagle dogs, oral capsule and IV solution; type: in vivo
# Description: Centrifugation began within 1 hour of collection. Plasma was placed into 96-well tubes with barcode labels. Plasma was maintained on dry ice prior to storage at approximately −70° C.
# [3] = Clinical trials, salt dosed in patients; type: in vivo, human
# [4] = Dynamic vapor sorption (DVS); type: physicochemical; settings: 25° C.
# Description: Moisture sorption/desorption data were collected using a Surface Measurement System (SMS) DVS Intrinsic Instrument according to the manufacturer's instructions. Samples were not dried prior to analysis. Sorption/desorption data were collected over a range from 5% to 95% relative humidity (RH) at 10% RH increments under a nitrogen gas purge. The equilibrium criterion used for analysis was less than 0.0100% weight change in 5 min with a maximum equilibration time of three hours. Data were not corrected for initial moisture content of the samples.
# The sample was recovered after completion of the isotherm and re-analyzed by XRPD
# Sorption isotherms of Compound 1 Malate Form A were obtained using a SMS DVS Intrinsic moisture sorption analyzer, controlled by DVS Intrinsic Control software. The sample temperature was maintained at 25° C. by the instrument controls. The humidity was controlled by mixing streams of dry and wet nitrogen, with a total flow rate of 200 mL/min. The relative humidity was measured by a calibrated Rotronic probe (dynamic range of 1.0-100% RH), located near the sample. The weight change, (mass relaxation) of the sample as a function of % RH was constantly monitored by a microbalance (accuracy ±0.005 mg).
# Briefly, Malate Form A was placed in a tared mesh stainless steel basket under ambient conditions. The sample was loaded and unloaded at 40% RH and 25° C. (typical room conditions) and allowed to equilibrate to 5% RH. A moisture sorption isotherm was performed as outlined below (1 scan per complete cycle). The standard isotherm was performed at 25° C. at 10% RH intervals over a 5-95% RH range. Data analysis was carried out within Microsoft Excel using the DVS Analysis Suite.
# [5] = Karl Fischer water content; type: physicochemical
# Description: Coulometric Karl Fischer analysis for water determination was performed using a Mettler Toledo DL39 Karl Fischer titrator with a Stromboli oven attachment. Prior to analyses samples tested were exposed to specified ambient relative humidity for ˜2 hours. Two replicates of the sample were placed into the drying oven set at a temperature of approximately 140 or 145° C. The drying oven was purged into the titrator vessel with dry nitrogen. The samples were then titrated by means of a generator electrode, which produces iodine by electrochemical oxidation: 2I−→I2+2e−. A NIST-traceable water standard (Hydranal Water Standard 10.0) was analyzed to check the operation of the coulometer.
# (§1) Experiments were carried out by exposing solids of the test materials to various RH conditions. Preparation of specimens for XRPD analyses of post-stress solids was conducted with minimal exposure to ambient conditions. For selected samples, Karl Fischer analysis was done concurrently with XRPD testing. These samples therefore were kept in a glove bag equilibrated at the RH near to the exposure conditions, and the XRPD specimens were prepared inside the glove bag.
# (§2) To investigate this further, stress experiments were conducted at 30% and 93% RH with minimal exposure to ambient RH so that XRPD and water content analyses could be considered representative of the stress conditions. […] In these experiments, a mixture of Malate Form A/Malate Material H was initially subjected to 93% RH for ˜8 days. It was then immediately analyzed by XRPD and Karl Fischer. The same sample was then re-exposed to 30% RH.
# [6] = Critical relative humidity stress (XRPD of post-stress solids); type: physicochemical; settings: RT
# Description: Critical relative humidity (RH) experiments were designed to confirm the physical stability RH range for Malate Form A in the solid-state. […] The water content of Malate Form A and Material D were characterized by Karl Fischer analysis. (See Table 3A(2)).
# as §1
# A mixture of Malate Form A/Malate Material H was subjected to 0%, 11%, 23%, 69%, and 93% RH, each for approximately 5 days. It should be noted that the stress RH was not maintained during the XRPD specimen preparation and analyses. Therefore, solids from all these stress conditions were briefly exposed to ambient RH estimated as ˜21-23% at the time of the analyses.
# as §2
# [7] = Heat and elevated temperature/relative humidity stress (XRPD); type: physicochemical; settings: heating at or above 40° C. (7 days at 40° C. and 80° C.; at or above 120° C. for ~1 hour)
# Description: Heat and elevated temperature/RH stresses were designed to evaluate the physical stability of Compound 1 Malate Form A at elevated temperature. A mixture of Compound 1 Malate Form A/Malate Material H was utilized for testing. Experiments were conducted by heating solids of the test material at 40, 80, 120, and 140-145° C. Solids were also subjected to a combination of elevated temperature and RH, i.e. 40° C./75% RH and 30° C./60% RH (Table 3B).
# [8] = Critical water activity slurries in organic solvent/water (XRPD); type: physicochemical; settings: Acetone/H2O 98/2, 1 week, water activity 0.35
# Description: An evaluation of the physical stability of Malate Form A under solvent-mediated conditions and assessment of the potential competition between solvate and hydrate formation were conducted by slurrying Malate Form A in various organic solvent/water systems (Table 3C).
# An acetone/water system was selected for investigation of the stability at water activities between 0.4 and 0.9. Aqueous ACN, Dioxane, DMF, DMSO, and NMP were also investigated. A mixture of Malate Form A/Malate Material H was primarily used as the starting material. Samples of Malate Form A were combined and utilized as the starting material in a single experiment (acetone/water at low water activity).
# [9] = Long term stability studies (related impurities by HPLC); type: physicochemical; settings: 6 months storage at 40° C./75% RH, 12 months storage at 40° C./75% RH
# [10] = Phase 1 single-dose crossover relative bioavailability study of capsule formulations in Healthy Subjects; type: in vivo, humans; settings: 100 mg capsule, oral administration
# Description: A Phase 1, 2-part, open-label, single-dose, crossover study was conducted to evaluate the relative bioavailability of Compound 1 Malate vs Compound 1 Free base capsule formulations in Healthy Subjects following oral administration.
# [11] = Storage of Tartrate Form A-1 at 2-8° C. (XRPD); type: physicochemical; settings: stored at 2-8° C. for 4 weeks
compound,measurement,setting,value
COCCNCc1ccc(-c2cc3nccc(Oc4ccc(NC(=O)C5(C(=O)Nc6ccc(F)cc6)CC5)cc4F)c3s2)nc1 [Compound 1 Malate Form A],Related Impurities (HPLC): Total impurities,"[1]; 2-8° C., 0 month",0.86%
same,Related Impurities (HPLC): Total impurities,"[1]; 2-8° C., 3 months",0.87%
same,Related Impurities (HPLC): Total impurities,"[1]; 2-8° C., 6 months",0.79%
same,Related Impurities (HPLC): Total impurities,"[1]; 2-8° C., 12 months",0.78%
same,Related Impurities (HPLC): Total impurities,"[1]; 2-8° C., 24 months",0.80%
same,Long term stability (in words),[1]; 24 months storage at 2-8° C. or 25° C./60% RH,stable
same,Related Impurities (HPLC): Total impurities,"[1]; 25° C./60% RH, 0 month",0.86%
same,Related Impurities (HPLC): Total impurities,"[1]; 25° C./60% RH, 3 months",0.76%
same,Related Impurities (HPLC): Total impurities,"[1]; 25° C./60% RH, 6 months",0.83%
same,Related Impurities (HPLC): Total impurities,"[1]; 25° C./60% RH, 12 months",0.80%
same,Related Impurities (HPLC): Total impurities,"[1]; 25° C./60% RH, 24 months",0.90%
same,Absolute Bioavailability (%) (DN AUC [Oral]/DN AUC [IV]) * 100,"[2]; beagle dogs, orally administered",34.2%
same,Improvement in oral bioavailability compared to the amorphous of Compound 1 free base plus surfactant,"[2]; dogs, in the absence of surfactant",2 fold
same,Dose reduction achieved when the salt was dosed in patients (vs free base),[3],20-30%
same,"DVS weight loss, desorption",[4]; 15-5% RH,~1.7%
same,"DVS weight loss, desorption",[4]; 95-15% RH,approximately 1.3 wt %
same,"DVS weight gain, sorption",[4]; between 5-25% RH,about 2.1 wt %
same,"DVS additional weight gain, sorption",[4]; between 25-95% RH,1.1 wt %
same,DVS weight loss upon equilibration at 5% RH,[4]; equilibration at 5% relative humidity,1.2 wt %
same,Water content (Karl Fischer),[5]; after the 30% RH stress,3.7%
same,"Water content, equivalent in mol",[5]; after the 30% RH stress,about 1.5 mol
same,Water content (Karl Fischer),[5]; after the 93% RH stress,5.3%
same,"Water content, equivalent in mol",[5]; after the 93% RH stress,~2.5 mol
same,"Calculated H2O content (KF, average value from 2 runs)",[5]; ~12% RH at sample preparation,Calculated H2O content: 3.47%
same,"Calculated H2O content (KF, average value from 2 runs)","[5]; ~17-18% RH at sample preparation, ~35 seconds for preparation",Calculated H2O content: 3.73%
same,"Calculated H2O content (KF, average value from 2 runs)","[5]; ~35-36% RH at sample preparation, ~35 seconds for preparation",Calculated H2O content: 5.32%
same,XRPD Results after RH stress,"[6]; 30% RH, 4 days (~33% ambient RH at sample preparation, glove bag)","Malate Form A, slight peak shifts (c)"
same,XRPD Results after RH stress,"[6]; 93% RH, 1 day","Malate Form A,"
same,Relative humidity above which the form is physically stable,[6]; below it a reversible dehydration was seen,above 23 % RH
same,Effect of heating (XRPD),[7],partial dehydration
same,XRPD Results after slurry,[8],Malate Form A + Malate Material B
same,Long term stability (in words),[9],stable
"COCCNCc1ccc(-c2cc3nccc(Oc4ccc(NC(=O)C5(C(=O)Nc6ccc(F)cc6)CC5)cc4F)c3s2)nc1 [Compound 1 Malate, N-(3-fluoro-4-((2-(5-(((2-methoxyethyl)amino)methyl)pyridin-2-yl)thieno[3,2-b]pyridin-7-yl)oxy)phenyl)-N′-(4-fluorophenyl)cyclopropane-1,1-dicarboxamide (S)-2-hydroxysuccinate (1:1)]",Bioequivalence to 120 mg Compound 1 Free base capsule formulation,[10],bioequivalence was achieved
"COCCNCc1ccc(-c2cc3nccc(Oc4ccc(NC(=O)C5(C(=O)Nc6ccc(F)cc6)CC5)cc4F)c3s2)nc1 [Compound 1, N-(3-fluoro-4-((2-(5-(((2-methoxyethyl)amino)methyl)pyridin-2-yl)thieno[3,2-b]pyridin-7-yl)oxy)phenyl)-N′-(4-fluorophenyl)cyclopropane-1,1-dicarboxamide]",Long term stability (in words),"[1]; room temperature, drug substance and drug product",poor long term stability
"COCCNCc1ccc(-c2cc3nccc(Oc4ccc(NC(=O)C5(C(=O)Nc6ccc(F)cc6)CC5)cc4F)c3s2)nc1 [Tartrate Form A, N-(3-fluoro-4-((2-(5-(((2-methoxyethyl)amino)methyl)pyridin-2-yl)thieno[3,2-b]pyridin-7-yl)oxy)phenyl)-N′-(4-fluorophenyl)cyclopropane-1,1-dicarboxamide (2R,3R)-2,3-dihydroxysuccinate (1:1)]",XRPD Results after storage,[11],Remained
